Assay results published in patent US20250074916A1, “BRM TARGETING COMPOUNDS AND ASSOCIATED METHODS OF USE” (Prelude Therapeutics Incorporated, priority 2023, published 2025).

Key:
SMARCA2 = target: T1, SMARCA2 (Homo sapiens, UniProt P51531); experiment: SMARCA2 HiBiT degradation assay in HeLa cells; format: cell-based; conditions: 18 hours incubation
T1 construct: SMARCA2-HiBiT knock-in Hela monoclonal cell (CS302366); host or cells: HeLa SMARCA2-HiBiT knock-in monoclonal cells (heterozygous knock-in)
Method: (§1) Example A. SMARCA2 HiBiT and SMARCA4 HiBiT Degradation Assay
(§2) Preparation of SMARCA2/4-HiBiT Knock-In Cells
(§3) HiBiT peptide knock-in of SMARCA2 in LgBiT expressing HEK293T cells was performed by CRISPR-mediated tagging system as described Promega. The homozygous HiBiT knock-in on c-terminus SMARCA2 was confirmed by sanger sequence. SMARCA2-HiBiT knock-in Hela monoclonal cell (CS302366) and SMARCA4-HiBiT knock-in Hela monoclonal cell (CS3023226) were purchased from Promega. The heterozygous HiBiT-knock-in was confirmed by sanger sequence in both SMARCA2-HiBiT and SMARCA4-HiBiT monoclonal cells.
(§4) SMARCA2 HiBiT and SMARCA4 HiBiT Degradation Assay in HeLa Cells
(§5) Compounds were dissolved in DMSO to make 10 mM stock and 3-fold series dilutions were further conducted keeping the highest concentration 10 μM. NCIH1693 and NCIH520 cells were maintained in PRMI 1640 medium (Corning Cellgro, Catalog #:10-040-CV) supplemented with 10% v/v FBS (GE Healthcare, Catalog #: SH30910.03) by splitting 1:3 twice a week.
(§6) Dispense 10 ul aliquot of prepared Hela-SMARCA2-HiBiT or Hela-SMARCA4-HiBiT cells (1:1 ratio of cells:Trypan Blue (#1450013, Bio-Rad)) onto cell counting slide (#145-0011, Bio-Rad) and obtain cell density and cell viability using cell counter (TC20, Bio-Rad). Remove appropriate volume of resuspended cells from culture flask to accommodate 2500 cells/well @[…]. Transfer Hela-HiBiT cells to 50 mL conical (#430290, Corning). Spin down at 1000 rpm for 5 min using tabletop centrifuge (SPINCHRON 15, Beckman). Discard supernatant and resuspend cell pellet in modified EMEM (#30-2003, ATCC) cell culture media containing 10% FBS (F2422-500 ML, Sigma), and 1× Penicillin/Streptomycin (200 g/L) (30-002-CI, Corning) to a cell density of 125,000 cells/mL. Dispense […] of resuspended Hela-HiBit cells per well in 384-well TC treated plate (#12-565-343, Thermo Scientific) using standard cassette (#50950372, Thermo Scientific) on Multidrop Combi (#5840310, Thermo Scientific) inside laminar flow cabinet. Dispense test compounds onto plates using digital liquid dispenser (D300E, Tecan). Incubate plates in humidified tissue culture incubator @37° C. for 18 hours. Add […] of prepared Nano-Glo® HiBiT Lytic detection buffer (N3050, Promega) to each well of 384-well plate using small tube cassette (#24073295, Thermo Scientific) on Multidrop Combi, incubate @RT for 30-60 min. Read plates on microplate reader (Envision 2105, PerkinElmer) using 384 well Ultra-Sensitive luminescence mode. Raw data files and compound information reports are swept into centralized data lake and deconvoluted using automated scripts designed by TetraScience, Inc. Data analysis, curve-fitting and reporting done in Dotmatics Informatics Suite using Screening Ultra module.
(§7) In Table 5, A=DC50<0.1 μM; B=0.1 μM≤DC50<1 μM and C=DC50>1 μM. In Table 5, A=Dmax>75% and B=50%<Dmax≤75% and C=Dmax<50%.

SMARCA4 = target: T2, SMARCA4 (Homo sapiens, UniProt P51532); experiment: SMARCA4 HiBiT degradation assay in HeLa cells; format: cell-based; conditions: 18 hours incubation
T2 construct: SMARCA4-HiBiT knock-in Hela monoclonal cell (CS3023226) were purchased from Promega; host or cells: HeLa SMARCA4-HiBiT knock-in monoclonal cells (heterozygous knock-in)
Method: as §1, §2, §3, §4, §5, §6, §7

T1 sequence (P51531 whole entry): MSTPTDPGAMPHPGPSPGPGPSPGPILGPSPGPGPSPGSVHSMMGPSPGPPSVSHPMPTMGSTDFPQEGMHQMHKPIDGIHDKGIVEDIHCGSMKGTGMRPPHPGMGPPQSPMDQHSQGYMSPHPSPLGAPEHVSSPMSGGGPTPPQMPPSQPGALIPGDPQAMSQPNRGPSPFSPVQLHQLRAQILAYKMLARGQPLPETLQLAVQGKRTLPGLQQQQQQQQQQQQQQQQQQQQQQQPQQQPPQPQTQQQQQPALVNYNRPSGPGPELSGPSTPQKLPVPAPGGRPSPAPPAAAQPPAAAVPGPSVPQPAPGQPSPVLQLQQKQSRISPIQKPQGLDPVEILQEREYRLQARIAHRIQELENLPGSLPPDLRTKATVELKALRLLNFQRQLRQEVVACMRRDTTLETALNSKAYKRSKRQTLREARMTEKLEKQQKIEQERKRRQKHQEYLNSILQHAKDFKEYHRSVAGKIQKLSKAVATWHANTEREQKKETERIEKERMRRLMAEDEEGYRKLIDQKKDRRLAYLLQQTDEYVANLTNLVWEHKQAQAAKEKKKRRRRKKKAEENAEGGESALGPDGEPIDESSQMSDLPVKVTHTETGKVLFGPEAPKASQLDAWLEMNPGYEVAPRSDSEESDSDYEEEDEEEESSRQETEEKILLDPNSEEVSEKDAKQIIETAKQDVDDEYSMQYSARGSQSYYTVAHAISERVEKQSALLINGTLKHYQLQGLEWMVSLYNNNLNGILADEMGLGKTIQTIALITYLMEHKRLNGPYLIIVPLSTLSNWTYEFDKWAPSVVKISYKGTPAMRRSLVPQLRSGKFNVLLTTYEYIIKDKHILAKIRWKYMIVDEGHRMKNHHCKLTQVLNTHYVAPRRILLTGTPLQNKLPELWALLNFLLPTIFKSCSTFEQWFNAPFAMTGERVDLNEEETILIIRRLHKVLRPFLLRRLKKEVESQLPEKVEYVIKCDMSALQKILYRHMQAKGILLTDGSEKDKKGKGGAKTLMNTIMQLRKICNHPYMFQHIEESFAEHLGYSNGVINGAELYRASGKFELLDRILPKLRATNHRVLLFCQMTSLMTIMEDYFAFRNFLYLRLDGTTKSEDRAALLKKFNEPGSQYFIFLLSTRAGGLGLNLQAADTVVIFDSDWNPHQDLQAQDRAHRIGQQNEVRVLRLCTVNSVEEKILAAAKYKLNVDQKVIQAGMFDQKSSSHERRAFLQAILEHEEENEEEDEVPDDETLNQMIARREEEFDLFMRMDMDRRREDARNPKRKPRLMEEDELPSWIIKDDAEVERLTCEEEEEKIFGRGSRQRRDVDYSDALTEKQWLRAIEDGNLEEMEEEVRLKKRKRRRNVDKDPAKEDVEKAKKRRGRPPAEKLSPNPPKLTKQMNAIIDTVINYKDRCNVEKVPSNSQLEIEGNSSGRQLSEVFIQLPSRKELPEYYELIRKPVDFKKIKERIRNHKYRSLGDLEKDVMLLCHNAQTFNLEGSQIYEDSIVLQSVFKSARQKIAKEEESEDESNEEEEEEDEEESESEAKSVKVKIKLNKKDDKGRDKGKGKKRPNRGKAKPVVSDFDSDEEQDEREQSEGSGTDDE
T2 sequence (P51532 whole entry): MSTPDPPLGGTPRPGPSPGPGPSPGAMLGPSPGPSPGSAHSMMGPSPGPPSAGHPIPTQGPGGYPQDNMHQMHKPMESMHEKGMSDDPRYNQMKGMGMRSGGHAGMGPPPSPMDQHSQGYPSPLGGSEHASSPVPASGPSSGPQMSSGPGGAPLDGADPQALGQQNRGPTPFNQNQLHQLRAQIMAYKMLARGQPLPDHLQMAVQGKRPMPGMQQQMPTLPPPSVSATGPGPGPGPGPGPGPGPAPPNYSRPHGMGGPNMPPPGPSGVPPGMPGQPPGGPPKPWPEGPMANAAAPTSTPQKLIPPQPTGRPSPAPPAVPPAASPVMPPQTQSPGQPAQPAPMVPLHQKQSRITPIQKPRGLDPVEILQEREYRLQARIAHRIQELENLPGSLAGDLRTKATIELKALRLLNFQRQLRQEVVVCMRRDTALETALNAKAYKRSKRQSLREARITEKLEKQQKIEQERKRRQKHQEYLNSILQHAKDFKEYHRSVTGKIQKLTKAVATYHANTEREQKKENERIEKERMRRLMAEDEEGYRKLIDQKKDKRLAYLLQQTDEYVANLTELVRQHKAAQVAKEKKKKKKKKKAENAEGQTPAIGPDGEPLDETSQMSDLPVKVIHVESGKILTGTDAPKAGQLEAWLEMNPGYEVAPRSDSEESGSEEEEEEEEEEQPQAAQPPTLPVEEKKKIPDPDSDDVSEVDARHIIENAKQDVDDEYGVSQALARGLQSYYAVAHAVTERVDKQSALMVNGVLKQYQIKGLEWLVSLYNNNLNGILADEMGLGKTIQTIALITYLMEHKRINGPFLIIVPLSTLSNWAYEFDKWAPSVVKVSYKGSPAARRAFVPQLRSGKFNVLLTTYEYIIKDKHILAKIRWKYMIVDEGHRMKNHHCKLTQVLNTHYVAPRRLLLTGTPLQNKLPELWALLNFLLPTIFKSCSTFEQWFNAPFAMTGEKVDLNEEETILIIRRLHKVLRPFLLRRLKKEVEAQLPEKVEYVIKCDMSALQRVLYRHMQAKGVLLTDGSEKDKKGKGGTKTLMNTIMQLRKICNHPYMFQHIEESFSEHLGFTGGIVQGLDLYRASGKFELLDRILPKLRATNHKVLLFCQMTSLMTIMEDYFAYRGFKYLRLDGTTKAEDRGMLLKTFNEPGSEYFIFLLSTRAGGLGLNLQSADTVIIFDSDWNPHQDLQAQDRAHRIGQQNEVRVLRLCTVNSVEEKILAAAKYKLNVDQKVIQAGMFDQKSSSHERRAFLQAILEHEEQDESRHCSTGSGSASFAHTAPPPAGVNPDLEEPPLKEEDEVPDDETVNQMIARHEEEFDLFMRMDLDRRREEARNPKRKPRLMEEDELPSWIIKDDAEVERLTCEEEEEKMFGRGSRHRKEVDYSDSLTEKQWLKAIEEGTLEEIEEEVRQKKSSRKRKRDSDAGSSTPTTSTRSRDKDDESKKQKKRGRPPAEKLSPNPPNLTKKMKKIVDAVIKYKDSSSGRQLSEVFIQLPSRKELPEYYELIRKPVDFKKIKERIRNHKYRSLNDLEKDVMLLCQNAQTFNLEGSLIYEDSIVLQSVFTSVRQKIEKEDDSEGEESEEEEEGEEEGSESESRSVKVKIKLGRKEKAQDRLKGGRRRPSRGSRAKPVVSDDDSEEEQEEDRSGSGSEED

Row | Compound | DC50 (SMARCA2) [µM] | Dmax (SMARCA2) [%] | DC50 (SMARCA4) [µM] | Dmax (SMARCA4) [%]
1 | CC1(C)CN(CC2CCN(c3ccc4c(c3)C(=O)N([C@H]3CCC(=O)NC3=O)C4)CC2)CCN1C(=O)N1CCc2[nH]c3nnc(-c4ccccc4O)cc3c2CC1 [Example 1, (S)-3-(6-(4-((4-(3-(2-Hydroxyphenyl)-5,6,7,8,9,10-hexahydropyridazino [4′,3′:4,5]pyrrolo[2,3-d]azepine-7-carbonyl)-3,3-dimethylpiperazin-1-yl)methyl)piperidin-1-yl)-1-oxoisoindolin-2-yl)piperidine-2,6-dione] | < 0.1 | > 75 | < 0.1 | > 75
2 | C[C@@H]1CN(CC2CCN(c3ccc4c(c3)C(=O)N([C@H]3CCC(=O)NC3=O)C4)CC2)C[C@H](C)N1C(=O)N1CCc2[nH]c3nnc(-c4ccccc4O)cc3c2CC1 [Example 2, (S)-3-(6-(4-(((3R,5S)-4-(3-(2-hydroxyphenyl)-5,6,7,8,9,10-hexahydropyridazino[4′,3′:4,5]pyrrolo[2,3-d]azepine-7-carbonyl)-3,5-dimethylpiperazin-1-yl)methyl)piperidin-1-yl)-1-oxoisoindolin-2-yl)piperidine-2,6-dione] | < 0.1 | > 75 | < 0.1 | > 75
3 | O=C1CC[C@H](N2Cc3ccc(N4CCC(CN5CCN(C(=O)N6CCc7[nH]c8nnc(-c9ccccc9O)cc8c7CC6)CC5)CC4)cc3C2=O)C(=O)N1 [Example 3, (S)-3-(6-(4-((4-(3-(2-hydroxyphenyl)-5,6,7,8,9,10-hexahydropyridazino[4′,3′:4,5]pyrrolo[2,3-d]azepine-7-carbonyl)piperazin-1-yl)methyl)piperidin-1-yl)-1-oxoisoindolin-2-yl)piperidine-2,6-dione] | < 0.1 | > 75 | < 0.1 | > 75
4 | CC1(C)CN(CC2CCN(c3ccc4c(c3)C(=O)N([C@H]3CCC(=O)NC3=O)C4)CC2)CCN1C(=O)N1CCc2[nH]c3nnc(-c4cccc(F)c4O)cc3c2CC1 [Example 4, (S)-3-(6-(4-((4-(3-(3-Fluoro-2-hydroxyphenyl)-5,6,7,8,9,10-hexahydro-pyridazino[4′,3′:4,5]pyrrolo[2,3-d]azepine-7-carbonyl)-3,3-dimethylpiperazin-1-yl)methyl)piperidin-1-yl)-1-oxoisoindolin-2-yl)piperidine-2,6-dione] | < 0.1 | 50 to 75 | > 1 | < 50
5 | CCC1CN(C(=O)N2CCN(CC3CCN(c4ccc5c(c4)C(=O)N([C@H]4CCC(=O)NC4=O)C5)CC3)CC2(C)C)CCc2c1[nH]c1nnc(-c3cccc(F)c3O)cc21 (stereo partly drawn) [Example 5, (3S)-3-(6-(4-((4-(9-ethyl-3-(3-fluoro-2-hydroxyphenyl)-5,6,7,8,9,10-hexahydropyridazino[4′,3′:4,5]pyrrolo[2,3-d]azepine-7-carbonyl)-3,3-dimethylpiperazin-1-yl)methyl)piperidin-1-yl)-1-oxoisoindolin-2-yl)piperidine-2,6-dione] | 0.1 to 1 | 50 to 75 | > 1 | < 50
6 | CC1(C)CN(CC2CCN(c3ccc4c(c3)C(=O)N([C@H]3CCC(=O)NC3=O)C4)CC2)CCN1C(=O)N1C2CCC1Cc1c([nH]c3nnc(-c4cccc(F)c4O)cc13)C2 (stereo partly drawn) [Example 6, (3S)-3-(6-(4-((4-(3-(3-fluoro-2-hydroxyphenyl)-6,7,8,9,10,11-hexahydro-5H-6,9-epiminocycloocta[4,5]pyrrolo[2,3-c]pyridazine-12-carbonyl)-3,3-dimethylpiperazin-1-yl)methyl)piperidin-1-yl)-1-oxoisoindolin-2-yl)piperidine-2,6-dione] | < 0.1 | > 75 | 0.1 to 1 | 50 to 75
7 | CC1(C)CN(CC2CCN(c3ccc4c(c3)C(=O)N([C@H]3CCC(=O)NC3=O)C4)CC2)CCN1C(=O)N1CC2CCC1Cc1c2[nH]c2nnc(-c3cccc(F)c3O)cc12 (stereo partly drawn) [Example 7, (3S)-3-(6-(4-((4-(3-(3-fluoro-2-hydroxyphenyl)-5,6,7,8,9,10-hexahydro-6,9-(epiminomethano)cyclohepta[4,5]pyrrolo[2,3-c]pyridazine-12-carbonyl)-3,3-dimethylpiperazin-1-yl)methyl)piperidin-1-yl)-1-oxoisoindolin-2-yl)piperidine-2,6-dione] | 0.1 to 1 | < 50 | 0.1 to 1 | < 50
